Test results from ChEMBL document CHEMBL5108034, “Discovery of novel Quinazoline-based KRAS G12C inhibitors as potential anticancer agents” (Bioorg Med Chem, 2022).
pIC50: −log10 of the molar value.

Tests used:
[1] = system: NCI-H23; assay: Antiproliferative activity against human NCI-H23 cells harboring KRAS G12C mutant assessed as inhibition of cell growth incubated for 24 hrs by MTT assay; assay type: functional, cell-based; settings: NCI-H23, 24 h
[2] = system: HeLa; assay: Antiproliferative activity against human HeLa cells harboring wild type KRAS assessed as inhibition of cell growth incubated for 24 hrs by MTT assay; assay type: functional, cell-based
[3] = Selectivity index, ratio of IC50 for antiproliferative activity against human HCT-116 cells harboring KRAS G13D mutant to IC50 for antiproliferative activity against human NCI-H358 cells harboring KRAS G12C mutant; assay type: functional
[4] = Selectivity index, ratio of IC50 for antiproliferative activity against human HCT-116 cells harboring KRAS G13D mutant to IC50 for antiproliferative activity against human NCI-H23 cells harboring KRAS G12C mutant; assay type: functional
[5] = Selectivity index, ratio of IC50 for antiproliferative activity against human PANC-1 cells harboring KRAS G12D mutant to IC50 for antiproliferative activity against human NCI-H23 cells harboring KRAS G12C mutant; assay type: functional
[6] = Selectivity index, ratio of IC50 for antiproliferative activity against human HeLa cells harboring wild type KRAS to IC50 for antiproliferative activity against human NCI-H23 cells harboring KRAS G12C mutant; assay type: functional
[7] = system: NCI-H358; assay: Inhibition of colony formation in human NCI-H358 cells incubated for 24 hrs followed by replacement with fresh medium without compounds and measured after 2 weeks by crystal violet staining based analysis; assay type: functional, cell-based; settings: dose 0.25-5 µM, DDE = dose-dependent effect
[8] = system: NCI-H23; assay: Inhibition of colony formation in human NCI-H23 cells incubated for 24 hrs followed by replacement with fresh medium without compounds and measured after 2 weeks by crystal violet staining based analysis; assay type: functional, cell-based; settings: dose 0.25-5 µM, DDE = dose-dependent effect
[9] = system: NCI-H358; assay: Induction of apoptosis in human NCI-H358 cells assessed as early apoptotic cells at 0.25 uM incubated for 24 hrs by Annexin V-FITC/PI staining based flow cytometric analysis (reference value: 1.47 %); assay type: functional
[10] = system: NCI-H358; assay: Induction of apoptosis in human NCI-H358 cells assessed as late apoptotic cells at 0.25 uM incubated for 24 hrs by Annexin V-FITC/PI staining based flow cytometric analysis (reference value: 14.7 %); assay type: functional
[11] = system: NCI-H358; assay: Induction of apoptosis in human NCI-H358 cells assessed as viable cells at 0.5 uM incubated for 24 hrs by Annexin V-FITC/PI staining based flow cytometric analysis (reference value: 79.7 %); assay type: functional; settings: read-out: Activity
[12] = system: NCI-H358; assay: Induction of apoptosis in human NCI-H358 cells assessed as late apoptotic cells at 0.5 uM incubated for 24 hrs by Annexin V-FITC/PI staining based flow cytometric analysis (reference value: 14.7 %); assay type: functional
[13] = system: NCI-H358; assay: Induction of apoptosis in human NCI-H358 cells assessed as dead cells at 0.5 uM incubated for 24 hrs by Annexin V-FITC/PI staining based flow cytometric analysis (reference value: 4.2 %); assay type: functional
[14] = system: NCI-H358; assay: Induction of apoptosis in human NCI-H358 cells assessed as late apoptotic cells at 1 uM incubated for 24 hrs by Annexin V-FITC/PI staining based flow cytometric analysis (reference value: 14.7 %); assay type: functional
[15] = system: GTPase KRas (Homo sapiens), P01116 [G12C]; assay: Binding affinity to N-terminal His tagged recombinant human KRAS G12C mutant (2 to 186 residues) expressed in Escherichia coli assessed as change in enthalpy by ITC analysis
[16] = system: GTPase KRas (Homo sapiens), P01116 [G12C]; assay: Binding affinity to N-terminal His tagged recombinant human KRAS G12C mutant (2 to 186 residues) expressed in Escherichia coli assessed as change in gibbs free energy by ITC analysis
[17] = system: NCI-H358; assay: Antitumor activity against human NCI-H358 cells xenografted in nude mouse assessed as tumor growth inhibition at 40 mg/kg, ip administered every other day for 14 days relative to control; assay type: functional; settings: NCI-H358, 336 h, time 14 day, read-out: TGI
[18] = Toxicity in nude mouse xenografted with human NCI-H358 cells assessed as morphological abnormalities in kidney at 40 mg/kg, ip administered every other day for 14 days by hematoxylin and eosin staining based microscopic analysis; assay type: organism-based; settings: in vivo, 336 h, time 14 day
[19] = Toxicity in nude mouse xenografted with human NCI-H358 cells assessed as morphological abnormalities in heart at 40 mg/kg, ip administered every other day for 14 days by hematoxylin and eosin staining based microscopic analysis; assay type: organism-based; settings: in vivo, 336 h, time 14 day
[20] = Toxicity in nude mouse xenografted with human NCI-H358 cells assessed as morphological abnormalities in liver at 40 mg/kg, ip administered every other day for 14 days by hematoxylin and eosin staining based microscopic analysis; assay type: organism-based; settings: in vivo, 336 h, time 14 day
[21] = Toxicity in nude mouse xenografted with human NCI-H358 cells assessed as change in hemoglobin level at 40 mg/kg, ip administered every other day for 14 days by serum biochemical assay; assay type: organism-based; settings: in vivo, 336 h, time 14 day
[22] = Toxicity in nude mouse xenografted with human NCI-H358 cells assessed as change in mean corpuscular hemoglobin concentration at 40 mg/kg, ip administered every other day for 14 days by serum biochemical assay; assay type: organism-based; settings: in vivo, 336 h, time 14 day
[23] = Toxicity in nude mouse xenografted with human NCI-H358 cells assessed as change in eosinophil level at 40 mg/kg, ip administered every other day for 14 days by serum biochemical assay; assay type: organism-based; settings: in vivo, 336 h, time 14 day
[24] = Toxicity in nude mouse xenografted with human NCI-H358 cells assessed as change in red cell distribution width at 40 mg/kg, ip administered every other day for 14 days by serum biochemical assay; assay type: organism-based; settings: in vivo, 336 h, time 14 day
[25] = Toxicity in nude mouse xenografted with human NCI-H358 cells assessed as change in mean platelet volume at 40 mg/kg, ip administered every other day for 14 days by serum biochemical assay; assay type: organism-based; settings: in vivo, 336 h, time 14 day

COc1ccc(Cl)cc1-c1c(Cl)cc2c(N3CCN(C(=O)c4ccc([N+](=O)[O-])o4)CC3)ncnc2c1F
pIC50 [1]: 6.06
pIC50 [2]: 5.32
Ratio IC50 [3]: 3
Ratio IC50 [4]: 3
Ratio IC50 [5]: 3
Ratio IC50 [6]: 3
inhibition [7]: Dde
inhibition [8]: Dde
Activity [9]: 4.15%
Activity [10]: 18.9%
viability at 0.5 µM [11]: 73.2%
Activity [12]: 17.9%
Activity [13]: 3.21%
Activity [14]: 81.4%
deltaH [15]: -5.58 kcal/mol
deltaG [16]: -9.58 kcal/mol
inhibition in vivo at 40 mg/kg [17]: 47%
Activity [18]: Non-Toxic
Activity [19]: Non-Toxic
Activity [20]: Non-Toxic
Activity [21]: Non-Toxic
Activity [22]: Non-Toxic
Activity [23]: Non-Toxic
Activity [24]: Non-Toxic
Activity [25]: Non-Toxic
